Measured values published in US20240238281A1, “PIPERAZINE DERIVATIVES AND APPLICATION THEREOF” (priority 2021, published 2024).
Read-outs that look alike come from different tables or passages of the source.

Key:
[1] = molecular target: T1, MC4R (Homo sapiens, UniProt P32245); experiment: In vitro activity of MCR receptors, intracellular cAMP signal (HEK293T/MCR cell line), MC4R; type: cell-based; conditions: cAMP, HEK293T/MCR cell line; read-out: MC4R EC50
T1 construct: expressed in transfected cells
T1 sequence (P32245 whole entry): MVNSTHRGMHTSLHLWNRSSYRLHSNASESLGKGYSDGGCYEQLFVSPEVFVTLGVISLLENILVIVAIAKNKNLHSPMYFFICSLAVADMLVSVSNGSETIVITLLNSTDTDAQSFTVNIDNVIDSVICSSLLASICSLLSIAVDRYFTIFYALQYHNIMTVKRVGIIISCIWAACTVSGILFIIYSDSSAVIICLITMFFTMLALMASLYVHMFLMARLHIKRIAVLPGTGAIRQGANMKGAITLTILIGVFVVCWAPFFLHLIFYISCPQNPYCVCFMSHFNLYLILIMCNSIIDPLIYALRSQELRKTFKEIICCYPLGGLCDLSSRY
Description: (§1) Test purpose: to evaluate the agonistic effect of the compound on MCRs by detecting intracellular cAMP signal changes.
(§2) Cells were resuspended with 1×PBS+500 μM IBMX. 10 μL of the cell suspension was added into a 384-well plate to be tested, and the cell concentration was adjusted to 1×10^4 cells per well for later use. A pre-prepared solution of the compound to be tested was added, and dimethyl sulfoxide of the same volume was added to blank control wells. The test plate was centrifuged at 300 rpm for 1 minute, incubated at 37° C. for 30 minutes, and added with 5 μL of cAMP-d2 and 5 μL of a CAMP-cry antibody detection reagent. The test plate was centrifuged at 300 rpm for 1 minute, and incubated at room temperature for 60 minutes. The test plate was placed in the Envision multifunctional microplate reader for reading, with a detection wavelength of 665/615 nm.

[2] = molecular target: T2, MC1R (Homo sapiens, UniProt Q01726); experiment: In vitro activity of MCR receptors, intracellular cAMP signal (HEK293T/MCR cell line), MC1R; type: cell-based; conditions: cAMP, HEK293T/MCR cell line; read-out: MC1R EC50
T2 construct: expressed in transfected cells
T2 sequence (Q01726 whole entry): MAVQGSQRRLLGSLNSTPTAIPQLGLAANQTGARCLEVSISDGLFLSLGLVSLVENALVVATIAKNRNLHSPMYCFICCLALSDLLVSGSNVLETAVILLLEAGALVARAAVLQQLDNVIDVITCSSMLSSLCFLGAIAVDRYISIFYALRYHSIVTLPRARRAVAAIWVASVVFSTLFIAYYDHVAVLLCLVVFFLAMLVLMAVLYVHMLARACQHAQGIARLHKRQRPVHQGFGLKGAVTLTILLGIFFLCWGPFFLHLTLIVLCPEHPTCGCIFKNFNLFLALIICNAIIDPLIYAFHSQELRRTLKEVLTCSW
Description: as §1
as §2, with “minutes.” for “minutes. The test plate was placed in the Envision multifunctional microplate reader for reading, with a detection wavelength of 665/615 nm.”

[3] = Drug concentration in brain tissues of rats, intravenous injection; type: in vivo, SD rats; conditions: rat, i.v. 2 mg/kg
Description: 3.1 6 healthy SD rats of 6-9 weeks old were selected, and the test compound was administered via intravenous injection. Two animals were randomly selected at 0.5 hour, 2 hours and 4 hours after administration respectively, and plasma and brain tissue samples were collected, and the quantitative assay of all biological samples was performed using the LC-MS/MS method.

C[C@@H]1CN(C(=O)[C@@H]2CN(C3CCOCC3)C[C@H]2c2ccc(F)cc2F)C[C@H](C)N1c1ccc(F)cc1 (single isomer, unassigned) [Compound 7]
EC50 [1]: 12 nM | EC50 [2]: 459 nM | concentration at 0.5 h ([3]; SD, brain, iv, 0.5 hour, read-out: Brain drug concentration): 2830 nM | concentration at 2 h ([3]; SD, brain, iv, 2 hours, read-out: Brain drug concentration): 965 nM | Kp at 0.5 h ([3]; SD, brain/plasma, iv, 0.5 hour, read-out: Brain-to-blood ratio): 7.8 | Kp at 2 h ([3]; SD, brain/plasma, iv, 2 hours, read-out: Brain-to-blood ratio): 6.9 | concentration at 0.5 h ([3]; SD, plasma, iv, 0.5 hour, read-out: Plasma drug concentration): 362 nM | concentration at 2 h ([3]; SD, plasma, iv, 2 hours, read-out: Plasma drug concentration): 141 nM | Brain drug concentration (nmol/L) ([3]; 4 hours): BQL | Plasma drug concentration (nmol/L) ([3]; 4 hours): BQL
